Reference: patent US20150258108A1 (priority 2014, published 2015)
“And” between values parts separate entries of the source, which are not always exact repeats. Equal values may be shown once.

Tests used:
[1] = Time to resumption of OST and opiate withdrawal scales (COWS, SOWS, OOWS); format: in vivo, human; conditions: opioid-dependent patients
[2] = QT interval (ΔQTcl) in opioid-dependent patients; format: in vivo, human; conditions: 60, 120, 180 mg, first 24 hours; correlated with serum concentration
Method: Patients' QT intervals were evaluated at regular time points throughout the study.

[3] = target: T1, human OPRK (κ-opioid receptor) (Homo sapiens, UniProt P41145); experiment: biochemical; format: binding; conditions: Ki, OPRK, [3H]-U69,593 binding; This work
T1 construct: purchased PerkinElmer Life Sciences (Boston, Mass.)
T1 sequence (P41145 whole entry): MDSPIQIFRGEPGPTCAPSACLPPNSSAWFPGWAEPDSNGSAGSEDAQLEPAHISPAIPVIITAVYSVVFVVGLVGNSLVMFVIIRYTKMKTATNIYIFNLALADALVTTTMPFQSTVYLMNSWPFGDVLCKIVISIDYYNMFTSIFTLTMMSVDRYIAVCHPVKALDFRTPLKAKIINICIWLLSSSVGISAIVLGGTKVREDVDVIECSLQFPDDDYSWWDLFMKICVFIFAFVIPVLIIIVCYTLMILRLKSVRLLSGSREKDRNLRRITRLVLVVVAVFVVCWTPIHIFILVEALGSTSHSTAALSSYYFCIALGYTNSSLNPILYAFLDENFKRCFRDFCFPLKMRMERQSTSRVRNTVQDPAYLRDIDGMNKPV

[4] = tested on: human OPRK (κ-opioid receptor); experiment: biochemical; format: binding; conditions: ΔpKi = pKi(OPRK)-pKi(OPRM)
OPRK [5] = target: T2, OPRK (Homo sapiens, UniProt P41145); experiment: Activation and inhibition bias quantification G-protein/Beta-arrestin2
T2 sequence (P41145 whole entry): as above
Method: Coupling efficiency (e-coupling) values indicated the relationship between the apparent binding affinity Ki versus the apparent functional potency EC50 of a given agonist ligand and used the equation pKi-pEC50. […] For inhibitory ligands, e-signal was calculated using maximal level of inhibition (Imax) normalized from 0 (basal, buffer) to 1 (agonist without inhibitor). Bias-coupling (quantification of pathway bias) was evaluated by subtracting the EC50 or the Ke issued from the G-protein pathway assays by those issued from β-arrestin pathway assays for a given ligand and in a linear (nM) scale. Bias-efficacy in favor of the G-protein pathway was evaluated by dividing the functional activation and the functional inhibition maximum responses (e-signal) from the G-protein pathway by the beta-arrestin pathway assays for a given ligand.

[6] = tested on: OPRD: human opioid receptor delta; conditions: previously shown; cited from earlier work
OPRK [7] = target: T2, OPRK; experiment: cell-based; set-up: host or cells: CHO-K1
OPRK [8] = target: T2, OPRK; experiment: biochemical; set-up: purchased PerkinElmer Life Sciences (Boston, Mass.)
[9] = Pharmacokinetics in opioid-dependent patients (Phase IB); conditions: 60, 120, 180 mg cohorts
[10] = Treatment emergent adverse events in opioid-dependent participants (Phase IB)
[11] = target: human OPRM (μ-opioid receptor) (Homo sapiens, UniProt P35372); experiment: biochemical; format: binding; set-up: expressed in transfected cells; host or cells: CHO-K1 (cell lines provided by Dr. Toll, Torrey Pines Institute)
Sequence of human OPRM (μ-opioid receptor) (P35372 whole entry): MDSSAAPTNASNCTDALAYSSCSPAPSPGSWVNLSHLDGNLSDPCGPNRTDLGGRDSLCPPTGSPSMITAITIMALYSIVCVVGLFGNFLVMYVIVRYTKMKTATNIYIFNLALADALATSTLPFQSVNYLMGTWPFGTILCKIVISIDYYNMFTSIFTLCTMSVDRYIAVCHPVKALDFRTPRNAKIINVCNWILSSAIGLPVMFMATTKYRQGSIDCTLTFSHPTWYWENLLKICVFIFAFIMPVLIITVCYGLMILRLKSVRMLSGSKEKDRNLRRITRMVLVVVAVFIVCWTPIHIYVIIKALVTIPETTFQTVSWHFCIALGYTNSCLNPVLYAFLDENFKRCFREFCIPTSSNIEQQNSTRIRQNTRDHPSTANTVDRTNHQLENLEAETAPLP

human OPRM = human OPRM (Homo sapiens, UniProt P35372); experiment: biochemical; format: biochemical; set-up: expressed in transfected cells; host or cells: CHO-K1 (cell lines provided by Dr. Toll, Torrey Pines Institute)
Sequence of human OPRM (P35372 whole entry): as above

[12] = 60 mg single dose, opioid-dependent patients, N = 6, events:subjects (%)
[13] = 120 mg single dose, opioid-dependent patients, N = 6, events:subjects (%)
[14] = 180 mg single dose, opioid-dependent patients, N = 6, events:subjects (%)

With `CC[C@H]1CC2C[C@H]3c4[nH]c5ccc(O)cc5c4CCN(C2)C13` [Noribogaine] the “withdrawal symptoms (COWS, OOWS, SOWS) over first six hours” value ([1]; 120 mg) was “generally experienced fewer withdrawal symptoms than the other patients”, the “average time to resumption of opioids (OST)” value ([1]; single 120 mg dose) was “greater than 20 hours” and the “QT interval prolongation (ΔQTcl)” value [2] was “dose-dependent increase in QT interval prolongation”. For the same molecule, the Ki [3] was 0.72 µM and 0.7 µM, the “Specificity ΔpKi” value [4] was 0.4 and 0.3 and the “Bias G-protein/Beta-arrestin2: Bias-coupling” value (OPRK [5]; Activation) was 32. For the same molecule, the “Bias G-protein/Beta-arrestin2: Bias-efficacy” value (OPRK [5]; Activation) was 0.59, the “Bias G-protein/Beta-arrestin2: Bias-efficacy” value (OPRK [5]; Inhibition) was −0.35 and the “Bias G-protein/Beta-arrestin2: Bias-coupling” value (OPRK [5]; Inhibition (fold more potent at inhibiting Dynorphin A-induced β-arrestin-2 recruitment than G-protein activation)) was 144. For the same molecule, the “fold less affine at OPRD than at OPRK” value [6] was about 30 ×, the EC50 (OPRK [7]) was about 0.265 µM and the IC50 (OPRK [7]) was 1.45 ± 1.1 µM. The Kb (OPRK [7]) was 0.251 µM, the “Beta-Arrestin2 Pathway e-coupling” value (OPRK [7]; OPRK, Activation) was −0.43 and the “Beta-Arrestin2 Pathway e-signal” value (OPRK [7]; OPRK, Activation) was 0.13. For the same molecule, the “inhibition of agonist response (up to)” value (OPRK [7]; OPRK, Dynorphin A at EC80) was about 60%, the IC50 (OPRK [7]; OPRK, Dynorphin A at EC80 (370 nM Dyn-A)) was 1.45 µM and the “Beta-Arrestin2 Pathway e-coupling” value (OPRK [7]; OPRK, Inhibition) was −0.44. The “Beta-Arrestin2 Pathway e-signal” value (OPRK [7]; OPRK, Inhibition) was 0.60, the “Efficacy (Emax)” value (OPRK [7]; OPRK, activation, % of dynorphin A maximal stimulation) was 12% and 12.6% and the e-coupling (OPRK [7]; OPRK, activation, pKi-pEC50) was −0.43. For the same molecule, the Ke (OPRK [7]; OPRK, inhibition of Dynorphin A at EC80) was 262 nM, the e-coupling (OPRK [7]; OPRK, inhibitory component, pKi-pKe) was −0.44 and the “Efficacy (Emax)” value (OPRK [8]) was 72%. For the same molecule, the “Efficacy (inhibition)” value (OPRK [8]) was 25%, the “G-protein Pathway e-coupling” value (OPRK [8]) was 1.72 and 1.08 and the IC50 (OPRK [8]) was 100 to 300 µM. For the same molecule, the e-coupling (OPRK [8]) was 1.08 and 1.22 and 1.72, the “own reduced signal level to which rival agonists are leveled down” value (OPRK [8]) was 70% and the EC50 (OPRK [8]; EC50) was 8.75 µM and 8.7 µM. The EC50 (OPRK [8]; EC50 (potency)) was 8.75 µM and 9 µM, the Kb (OPRK [8]; Ke) was 15 µM and 24 µM and the Kb (OPRK [8]; pEC50, pKe) was 12.6 µM and 39.8 µM. The Emax (OPRK [8]; read-out: maximal efficacy relative to Dynorphin A) was 75%, the “Maximum serum concentration (Cmax) versus dose” value [9] was “increased in a dose-dependent manner” and the “TEAE: Catheter Site Infection” value [10, 12] was 0. The “TEAE: Catheter Site Pain” value [10, 12] was 0, the “TEAE: Catheter Site Related Reaction” value [10, 12] was 0 and the “TEAE: Cellulitis” value [10, 12] was 0. The “TEAE: Diarrhoea” value [10, 12] was 0, the “TEAE: Dry Mouth” value [10, 12] was 0 and the “TEAE: Ear and Labyrinth Disorders” value [10, 12] was 0. The “TEAE: Epistaxis” value [10, 12] was 0, the “TEAE: Euphoric Mood” value [10, 12] was 0 and the “TEAE: General Disorders and Administration Site Conditions” value [10, 12] was 0. The “TEAE: Hyperaesthesia” value [10, 12] was 0, the “TEAE: Infections and Infestations” value [10, 12] was 0 and the “TEAE: Limb Discomfort” value [10, 12] was 0. The “TEAE: Malaise” value [10, 12] was 0, the “TEAE: Nausea” value [10, 12] was 0 and the “TEAE: Oropharyngeal Pain” value [10, 12] was 0. For the same molecule, the “TEAE: Pseudoparalysis” value [10, 12] was 0, the “TEAE: Respiratory, Thoracic and Mediastinal Disorders” value [10, 12] was 0 and the “TEAE: Rhinorrhoea” value [10, 12] was 0. The “TEAE: Skin Discomfort” value [10, 12] was 0, the “TEAE: Skin Irritation” value [10, 12] was 0 and the “TEAE: Skin and Subcutaneous Tissue Disorders” value [10, 12] was 0. For the same molecule, the “TEAE: Somnoience” value [10, 12] was 0, the “TEAE: Tinnitus” value [10, 12] was 0 and the “TEAE: Tremor” value [10, 12] was 0. The “TEAE: Urinary Tract Infection” value [10, 12] was 0, the “TEAE: Vomiting” value [10, 12] was 0 and the “TEAE: Back Pain” value [10, 13] was 0. For the same molecule, the “TEAE: Catheter Site Infection” value [10, 13] was 0, the “TEAE: Catheter Site Related Reaction” value [10, 13] was 0 and the “TEAE: Depressed Mood” value [10, 13] was 0. For the same molecule, the “TEAE: Dry Eye” value [10, 13] was 0, the “TEAE: Dyspepsia” value [10, 13] was 0 and the “TEAE: Euphoric Mood” value [10, 13] was 0. For the same molecule, the “TEAE: Limb Discomfort” value [10, 13] was 0, the “TEAE: Malaise” value [10, 13] was 0 and the “TEAE: Musculoskeletal and Connective Tissue Disorders” value [10, 13] was 0. The “TEAE: Psychiatric Disorders” value [10, 13] was 0, the “TEAE: Somnoience” value [10, 13] was 0 and the “TEAE: Urinary Tract Infection” value [10, 13] was 0. For the same molecule, the “TEAE: Catheter Site Infection” value [10, 14] was 0, the “TEAE: Catheter Site Pain” value [10, 14] was 0 and the “TEAE: Depressed Mood” value [10, 14] was 0. The “TEAE: Diarrhoea” value [10, 14] was 0, the “TEAE: Dry Eye” value [10, 14] was 0 and the “TEAE: Dyspepsia” value [10, 14] was 0. The “TEAE: Ear and Labyrinth Disorders” value [10, 14] was 0, the “TEAE: Epistaxis” value [10, 14] was 0 and the “TEAE: Euphoric Mood” value [10, 14] was 0. For the same molecule, the “TEAE: Hyperaesthesia” value [10, 14] was 0, the “TEAE: Malaise” value [10, 14] was 0 and the “TEAE: Oropharyngeal Pain” value [10, 14] was 0. For the same molecule, the “TEAE: Pseudoparalysis” value [10, 14] was 0, the “TEAE: Psychiatric Disorders” value [10, 14] was 0 and the “TEAE: Respiratory, Thoracic and Mediastinal Disorders” value [10, 14] was 0. For the same molecule, the “TEAE: Rhinorrhoea” value [10, 14] was 0, the “TEAE: Skin Discomfort” value [10, 14] was 0 and the “TEAE: Skin Irritation” value [10, 14] was 0. For the same molecule, the “TEAE: Skin and Subcutaneous Tissue Disorders” value [10, 14] was 0, the “TEAE: Somnoience” value [10, 14] was 0 and the “TEAE: Tinnitus” value [10, 14] was 0. For the same molecule, the “TEAE: Tremor” value [10, 14] was 0, the hallucinatory effects ([10]; 60, 120, 180 mg single dose, opioid-dependent participants) was “no hallucinatory effects” and the Ki [11] was 1.52 ± 0.3 µM. The IC50 (human OPRM) was 134 ± 17 µM, the Ke (human OPRM) was 19 ± 5 µM and the “Ke (functional inhibition constant)” value (human OPRM) was 19.203 µM. For the same molecule, the “antagonist potency, OPRM G-protein pathway” value (human OPRM) was 20 µM, the e-coupling (human OPRM) was 1.02 and 1.10 and the EC50 (human OPRM; EC50) was 16.1 µM. It also gave a Kb (human OPRM; Ke) of 28 ± 14 µM, an EC50 (human OPRM; approximated EC50) of about 16 µM and a Kb (human OPRM; pEC50, (Ke): pKe) of 20 µM.
